By IC50 is commonly meant the point on the concentration scale where inhibition reaches its midpoint. Read a low IC50 as greater potency in that assay. Broadly, the inhibition is the relative decrease from the control value, in per cent.

Data on 46 molecules can be found in article PMC7489219 (Molecular Brain, 2020).

For one experiment, the target named is T1, GluN2A (Homo sapiens, UniProt Q05586+Q12879).
T1 construct: gene GRIN2A

The target of the next experiment is T2, GluN2B (Homo sapiens, UniProt Q05586+Q13224).
T2 construct: gene GRIN2B; with GluN1 (Q05586)
T2 sequence (Q13224 27-1484, other chains not shown): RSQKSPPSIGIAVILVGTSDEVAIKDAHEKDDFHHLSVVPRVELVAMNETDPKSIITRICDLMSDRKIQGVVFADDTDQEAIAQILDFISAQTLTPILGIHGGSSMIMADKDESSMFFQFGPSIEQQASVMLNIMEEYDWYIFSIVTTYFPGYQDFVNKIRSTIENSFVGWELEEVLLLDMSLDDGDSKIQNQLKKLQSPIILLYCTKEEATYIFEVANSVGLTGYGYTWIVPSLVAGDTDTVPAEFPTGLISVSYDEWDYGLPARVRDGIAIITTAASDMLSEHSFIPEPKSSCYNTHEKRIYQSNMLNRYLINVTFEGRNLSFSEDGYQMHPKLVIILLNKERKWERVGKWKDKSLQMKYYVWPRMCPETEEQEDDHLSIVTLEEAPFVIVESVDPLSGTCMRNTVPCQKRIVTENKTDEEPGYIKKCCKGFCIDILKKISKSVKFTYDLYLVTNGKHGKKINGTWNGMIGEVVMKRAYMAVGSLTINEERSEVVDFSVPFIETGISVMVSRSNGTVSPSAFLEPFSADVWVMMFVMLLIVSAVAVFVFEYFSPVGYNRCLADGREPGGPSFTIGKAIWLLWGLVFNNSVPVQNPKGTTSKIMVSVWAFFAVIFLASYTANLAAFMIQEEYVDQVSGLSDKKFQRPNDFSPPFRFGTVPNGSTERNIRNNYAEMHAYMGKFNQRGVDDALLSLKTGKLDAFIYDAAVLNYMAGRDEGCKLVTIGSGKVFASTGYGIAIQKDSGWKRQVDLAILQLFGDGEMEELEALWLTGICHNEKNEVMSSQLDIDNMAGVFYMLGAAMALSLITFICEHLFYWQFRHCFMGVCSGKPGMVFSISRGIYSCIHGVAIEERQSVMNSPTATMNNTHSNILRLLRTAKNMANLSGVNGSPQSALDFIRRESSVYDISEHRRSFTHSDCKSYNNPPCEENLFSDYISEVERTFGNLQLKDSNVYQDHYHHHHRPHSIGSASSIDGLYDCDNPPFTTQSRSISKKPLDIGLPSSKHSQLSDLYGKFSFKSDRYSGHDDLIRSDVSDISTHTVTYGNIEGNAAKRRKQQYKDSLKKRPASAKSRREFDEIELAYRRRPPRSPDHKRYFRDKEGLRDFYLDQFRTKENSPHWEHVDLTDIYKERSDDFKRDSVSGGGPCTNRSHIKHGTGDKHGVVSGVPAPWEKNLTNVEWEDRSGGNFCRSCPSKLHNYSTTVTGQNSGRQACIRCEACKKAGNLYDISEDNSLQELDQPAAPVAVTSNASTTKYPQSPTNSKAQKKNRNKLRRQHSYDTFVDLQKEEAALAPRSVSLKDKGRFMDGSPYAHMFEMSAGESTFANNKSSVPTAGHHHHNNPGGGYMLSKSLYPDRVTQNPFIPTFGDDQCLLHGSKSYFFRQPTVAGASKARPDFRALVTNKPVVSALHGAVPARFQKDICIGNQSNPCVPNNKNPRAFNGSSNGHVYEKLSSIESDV
Nature of the experiment: automated patch clamp of HEK293 cells stably expressing human GluN1/GluN2B. Type of experiment: cell-based. A general note: The patch-clamp technique gives a direct electrical read-out from membranes.

Experiment [1] deals with T3, primary mouse cortical neurons.
T3 construct: primary cortical neurons, DIV 10
Nature of the experiment: cells. Particulars: Cortical neurone, 20 h, read-out: % inhibition, inhibition of NMDA-induced cell death (protection score), 30 min pre-treatment. Details: Protection from NMDA-induced (30 uM, 10 min) neuronal death; Hoechst nuclear morphology by automated microscopy. In outline:
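On DIV 10, primary mouse cortical neurons were given compound at 10 μM for 30 min at 37 °C, then 30 μM NMDA for 10 min, washed, and kept 20 h with compound. Dead cells were scored by nuclear morphology, and % protection was derived from survival relative to vehicle + NMDA and untreated controls.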

Where a name gives a salt, the structure may show the parent alone.

T1 sequence (Q12879 23-1464, other chains not shown): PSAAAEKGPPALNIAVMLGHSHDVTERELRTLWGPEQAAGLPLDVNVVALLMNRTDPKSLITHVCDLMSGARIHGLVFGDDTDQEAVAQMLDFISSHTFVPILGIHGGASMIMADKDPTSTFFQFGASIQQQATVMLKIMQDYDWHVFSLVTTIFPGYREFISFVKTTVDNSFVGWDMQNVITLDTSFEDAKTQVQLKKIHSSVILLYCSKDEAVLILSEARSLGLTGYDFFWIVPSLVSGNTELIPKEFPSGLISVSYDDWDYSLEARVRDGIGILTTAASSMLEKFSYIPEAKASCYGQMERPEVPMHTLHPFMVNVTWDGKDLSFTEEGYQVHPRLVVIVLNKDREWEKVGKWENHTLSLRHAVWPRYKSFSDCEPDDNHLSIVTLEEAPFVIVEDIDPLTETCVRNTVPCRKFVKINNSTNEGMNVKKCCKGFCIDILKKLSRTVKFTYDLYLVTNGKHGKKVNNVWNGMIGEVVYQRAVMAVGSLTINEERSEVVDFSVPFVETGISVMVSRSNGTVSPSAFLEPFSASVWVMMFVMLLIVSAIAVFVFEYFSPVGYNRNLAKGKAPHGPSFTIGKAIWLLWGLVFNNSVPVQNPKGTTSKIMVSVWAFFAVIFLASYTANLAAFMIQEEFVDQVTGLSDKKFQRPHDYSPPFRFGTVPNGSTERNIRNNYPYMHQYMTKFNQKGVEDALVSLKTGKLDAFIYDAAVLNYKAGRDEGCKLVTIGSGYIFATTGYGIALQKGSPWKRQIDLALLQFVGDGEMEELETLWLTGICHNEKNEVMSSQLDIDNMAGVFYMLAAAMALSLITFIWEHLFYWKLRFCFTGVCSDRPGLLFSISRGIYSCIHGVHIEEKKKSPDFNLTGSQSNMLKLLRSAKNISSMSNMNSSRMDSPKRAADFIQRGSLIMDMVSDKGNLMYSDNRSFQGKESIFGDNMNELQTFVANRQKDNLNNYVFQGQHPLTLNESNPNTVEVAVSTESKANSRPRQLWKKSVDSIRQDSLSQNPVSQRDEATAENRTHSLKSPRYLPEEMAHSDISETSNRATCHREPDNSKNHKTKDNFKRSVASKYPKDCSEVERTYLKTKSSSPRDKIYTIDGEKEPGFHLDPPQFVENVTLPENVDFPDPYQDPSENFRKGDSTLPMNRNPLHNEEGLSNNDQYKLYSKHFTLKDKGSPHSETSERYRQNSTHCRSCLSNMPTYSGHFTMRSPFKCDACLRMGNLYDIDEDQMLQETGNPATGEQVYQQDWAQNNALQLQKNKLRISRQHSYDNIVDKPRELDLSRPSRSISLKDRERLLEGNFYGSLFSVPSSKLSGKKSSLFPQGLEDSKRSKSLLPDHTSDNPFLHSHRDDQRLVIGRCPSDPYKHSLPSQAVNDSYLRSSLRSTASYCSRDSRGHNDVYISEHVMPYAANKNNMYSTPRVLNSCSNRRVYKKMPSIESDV

As for `N[C@H](CCCP(=O)(O)O)C(=O)O` [D-APV], the figures for the half-maximal inhibitory concentration (IC50) at GluN2A and against GluN2B were 1480 nM and 1140 nM, respectively.

For `C[C@H](Cn1cnc2c(N)ncnc21)OCP(=O)(O)O` [Tenofovir (Viread)], in experiment [1], the inhibition at 10 µM worked out at 8.23%.

Regarding `CCCCNc1ccc(C(=O)OCCN(C)C)cc1` [Tetracaine hydrochloride (Pontocaine)], the inhibition at 10 µM in experiment [1] was -0.577%.

On to `COc1ccc2cc1Oc1ccc(cc1)C[C@H]1c3cc(c(OC)cc3CCN1C)Oc1c(OC)c(OC)cc3c1[C@H](C2)N(C)CC3` [Tetrandrine (Fanchinine)], for which the inhibition at 10 µM in experiment [1] amounted to 9.82%.

For `O=C1CCC(N2C(=O)c3ccccc3C2=O)C(=O)N1` (centres unmarked) [Thalidomide], the inhibition at 10 µM in experiment [1] is -3.3%.

In the case of `Cn1cnc2c1c(=O)[nH]c(=O)n2C` [Theobromine (3,7-Dimethylxanthine)], the inhibition at 10 µM in experiment [1] was found to be 0.993%.

In the case of `Nc1nc2[nH]cnc2c(=S)[nH]1` [Thioguanine], the inhibition at 10 µM in experiment [1] was 13%.

On to `O=c1oc2cc(O)ccc2s1` [Tioxolone], for which, in experiment [1], the inhibition at 10 µM is -0.329%.

With `Cc1ccc(O)c([C@H](CCN(C(C)C)C(C)C)c2ccccc2)c1` [Tolterodine tartrate (Detrol LA)], in experiment [1], the inhibition at 10 µM is -2.31%.

For `CC1(C)O[C@@H]2[C@@H](CO[C@@]3(COS(N)(=O)=O)OC(C)(C)O[C@@H]23)O1` [Topiramate], in experiment [1], the inhibition at 10 µM was determined as 11.4%.

Turning to `CC[C@@]1(O)C(=O)OCc2c1cc1n(c2=O)Cc2cc3c(CN(C)C)c(O)ccc3nc2-1` [Topotecan HCl], the inhibition at 10 µM in experiment [1] was -1.54%.

For the molecule `CN(C)CCOc1ccc(/C(=C(/CCCl)c2ccccc2)c2ccccc2)cc1` [Toremifene Citrate (Fareston, Acapodene)], the inhibition at 10 µM in experiment [1] was -2.81%.

Regarding `Cc1cccc(Nc2ccncc2S(=O)(=O)NC(=O)NC(C)C)c1` [Torsemide (Demadex)], the inhibition at 10 µM in experiment [1] stood at 22%.

Take `COc1ccc(/C=C/C(=O)Nc2ccccc2C(=O)O)cc1OC` [Tranilast (SB 252218)]: the inhibition at 10 µM in experiment [1] is -11.4%.

For the molecule `O=c1n(CCCN2CCN(c3cccc(Cl)c3)CC2)nc2ccccn12` [Trazodone hydrochloride (Desyrel)], the inhibition at 10 µM in experiment [1] was -1.4%.

As for `CC1=C(/C=C/C(C)=C/C=C/C(C)=C/C(=O)O)C(C)(C)CCC1` [Tretinoin (Aberela)], in experiment [1], the inhibition at 10 µM is -38.4%.

Regarding `C[C@]12C=CC(=O)C=C1CC[C@H]1[C@@H]3C[C@@H](O)[C@](O)(C(=O)CO)[C@@]3(C)C[C@H](O)[C@@]12F` [Triamcinolone (Aristocort)], the inhibition at 10 µM in experiment [1] turned out to be 16.3%.

For `CC1(C)O[C@@H]2C[C@H]3[C@@H]4CCC5=CC(=O)C=C[C@]5(C)[C@@]4(F)[C@@H](O)C[C@]3(C)[C@]2(C(=O)CO)O1` [Triamcinolone acetonide], the inhibition at 10 µM in experiment [1] was 59.8%.

`O=c1[nH]c(=O)n([C@H]2C[C@H](O)[C@@H](CO)O2)cc1C(F)(F)F` [Trifluridine (Viroptic)]: the inhibition at 10 µM in experiment [1] was 9.42%.

`C[C@]12CC[C@H]3[C@@H](CC[C@@]45O[C@@H]4C(O)=C(C#N)C[C@]35C)[C@@H]1CC[C@@H]2O` [Trilostane]: in experiment [1], the inhibition at 10 µM was found to be 4.15%.

`CC(C)[C@]12O[C@H]1[C@@H]1O[C@]13[C@]1(O[C@H]1C[C@H]1C4=C(CC[C@@]13C)C(=O)OC4)[C@@H]2O` [Triptolide]: the inhibition at 10 µM in experiment [1] was -1.79%.

For `CN1[C@@H]2CC[C@H]1C[C@@H](OC(=O)c1c[nH]c3ccccc13)C2` [Tropisetron], the inhibition at 10 µM in experiment [1] is -4.08%.

For the molecule `O=C(OC1C[C@H]2CC[C@@H](C1)[N+]21CCCC1)C(O)(c1ccccc1)c1ccccc1` (some centres unmarked) [Trospium chloride (Sanctura)], in experiment [1], the inhibition at 10 µM was found to be 7.49%.

Turning to `C[C@@H]1O[C@@H](OC[C@H]2O[C@@H](Oc3c(-c4ccc(OCCO)c(OCCO)c4)oc4cc(OCCO)cc(O)c4c3=O)[C@H](O)[C@@H](O)[C@@H]2O)[C@H](O)[C@H](O)[C@H]1O` [Troxerutin], the inhibition at 10 µM in experiment [1] is 23.8%.

Turning to `C[C@H](CCC(=O)O)[C@H]1CC[C@H]2[C@@H]3[C@@H](O)C[C@@H]4C[C@H](O)CC[C@]4(C)[C@H]3CC[C@]12C` [Ursodiol (Actigal Urso)], the inhibition at 10 µM in experiment [1] was 35.3%.

`C[C@H]1[C@H](C)CC[C@]2(C(=O)O)CC[C@]3(C)C(=CC[C@@H]4[C@@]5(C)CC[C@H](O)C(C)(C)[C@@H]5CC[C@]43C)[C@H]12` [Ursolic acid (Malol)]: the inhibition at 10 µM in experiment [1] was found to be 6.94%.

Consider `CCCCC(=O)N(Cc1ccc(-c2ccccc2-c2nn[nH]n2)cc1)[C@H](C(=O)O)C(C)C` [Valsartan (Diovan)], for which, in experiment [1], the inhibition at 10 µM was -0.714%.

As for `COc1cc2/c(=N/c3ccc(Br)cc3F)nc[nH]c2cc1OCC1CCN(C)CC1` [Vandetanib (Zactima)], in experiment [1], the inhibition at 10 µM was -8.86%.

On to `COc1cc(C=O)ccc1O` [Vanillin], for which, in experiment [1], the inhibition at 10 µM was -1.73%.

For `COc1cc(CCC(C)=O)ccc1O` [Vanillylacetone], in experiment [1], the inhibition at 10 µM is 7.76%.

`CCCc1nc(C)c2c(=O)nc(-c3cc(S(=O)(=O)N4CCN(CC)CC4)ccc3OCC)[nH]n12` [Vardenafil (Vivanza)]: the inhibition at 10 µM in experiment [1] was -5.64%.

For the molecule `COc1ccc(C(CN(C)C)C2(O)CCCCC2)cc1` (centres unmarked) [Venlafaxine], in experiment [1], the inhibition at 10 µM was found to be 22.6%.

In the case of `COC[C@@H](c1ccc(C(F)(F)F)cc1)N1CCN(C2(C)CCN(C(=O)c3c(C)ncnc3C)CC2)C[C@@H]1C` [Vicriviroc Malate], the inhibition at 10 µM in experiment [1] amounted to 0.113%.

In the case of `Nc1ncnc2c1ncn2[C@@H]1O[C@H](CO)[C@@H](O)[C@@H]1O` [Vidarabine (Vira-A)], the inhibition at 10 µM in experiment [1] was 20.1%.

As for `CC[C@]1(O)C[C@H]2CN(CCc3c([nH]c4ccccc34)[C@@](C(=O)OC)(c3cc4c(cc3OC)N(C=O)[C@H]3[C@@](O)(C(=O)OC)[C@H](OC(C)=O)[C@]5(CC)C=CCN6CC[C@]43[C@@H]65)C2)C1` [Vincristine], the inhibition at 10 µM in experiment [1] is -7.5%.

With `CCC1=C[C@@H]2CN(C1)Cc1c([nH]c3ccccc13)[C@@](C(=O)OC)(c1cc3c(cc1OC)N(C)[C@H]1[C@@](O)(C(=O)OC)[C@H](OC(C)=O)[C@]4(CC)C=CCN5CC[C@]31[C@@H]54)C2` [Vinorelbine (Navelbine)], in experiment [1], the inhibition at 10 µM was -1.98%.

Consider `C[C@@H](c1ncncc1F)[C@](O)(Cn1cncn1)c1ccc(F)cc1F` [Voriconazole], for which the inhibition at 10 µM in experiment [1] came out at 17.5%.

Turning to `O=c1c2ccccc2oc2ccccc12` [Xanthone (Genicide)], the inhibition at 10 µM in experiment [1] was found to be 7.85%.

`COC(=O)[C@@H]1[C@H]2C[C@H]3c4[nH]c5ccccc5c4CCN3C[C@@H]2CC[C@@H]1O` [Yohimbine hydrochloride (Antagonil)]: the inhibition at 10 µM in experiment [1] was found to be 7.7%.

For the molecule `Nc1ccn([C@H]2CC[C@@H](CO)O2)c(=O)n1` [Zalcitabine], the inhibition at 10 µM in experiment [1] was found to be 3.28%.

In the case of `CC(c1cc2ccccc2s1)N(O)C(N)=O` (centres unmarked) [Zileuton], the inhibition at 10 µM in experiment [1] was -10.2%.

Consider `O=C1Cc2cc(CCN3CCN(c4nsc5ccccc45)CC3)c(Cl)cc2N1` [Ziprasidone hydrochloride], for which the inhibition at 10 µM in experiment [1] was 8.38%.

On to `O=P(O)(O)C(O)(Cn1ccnc1)P(=O)(O)O` [Zoledronic Acid (Zoledronate)], for which the inhibition at 10 µM in experiment [1] is -0.211%.

Turning to `CN(C)CCc1c[nH]c2ccc(C[C@H]3COC(=O)N3)cc12` [Zolmitriptan (Zomig)], the inhibition at 10 µM in experiment [1] came to 41.2%.

Take `NS(=O)(=O)Cc1noc2ccccc12` [Zonisamide]: the inhibition at 10 µM in experiment [1] was -5.91%.

On to `CC[C@H](CC[C@@H](C)[C@H]1CC[C@H]2[C@@H]3CC=C4C[C@@H](O)CC[C@]4(C)[C@H]3CC[C@]12C)C(C)C` [β-Sitosterol], for which the inhibition at 10 µM in experiment [1] was -0.368%.
